In ChEMBL document CHEMBL1146926, “Fluorescent non-imidazole histamine H3 receptor ligands with nanomolar affinities” (Bioorg Med Chem Lett, 2006):

Biological target: Histamine H3 receptor (Homo sapiens, UniProt Q9Y5N1)
Test: Displacement of [125I]iodoproxyfan from human histamine H3 receptor expressed in CHOK1 cells
Assay type: cell-based, CHO-K1

Histamine H3 receptor, sequence (Q9Y5N1 whole entry): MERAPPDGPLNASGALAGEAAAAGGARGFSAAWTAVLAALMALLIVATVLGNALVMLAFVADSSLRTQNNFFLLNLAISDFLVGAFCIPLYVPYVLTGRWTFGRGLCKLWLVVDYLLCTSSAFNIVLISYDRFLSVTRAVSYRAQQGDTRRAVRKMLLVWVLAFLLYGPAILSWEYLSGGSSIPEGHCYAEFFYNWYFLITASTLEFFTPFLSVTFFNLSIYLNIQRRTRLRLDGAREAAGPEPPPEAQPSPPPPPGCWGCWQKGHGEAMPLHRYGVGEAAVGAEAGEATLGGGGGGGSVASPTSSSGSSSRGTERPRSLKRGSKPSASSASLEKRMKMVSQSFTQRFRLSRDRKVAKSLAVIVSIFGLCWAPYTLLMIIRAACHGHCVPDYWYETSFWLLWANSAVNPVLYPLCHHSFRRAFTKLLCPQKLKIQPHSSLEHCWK

Ki [nM] | Structure (SMILES)
31 | N#Cc1c2ccccc2cn1CCCCCN1CCCCC1
351 | N#Cc1c2ccccc2cn1CCCN1CCCCC1

The next lines start with the compound.

Structure (SMILES) | Ki [nM]
N#Cc1c2ccccc2cn1CCCCN1CCCCC1 | 178
N#Cc1c2ccccc2cn1CCCCCCN1CCCCC1 | 31
O=[N+]([O-])c1ccc(NCCCCN2CCCCC2)c2nonc12 | 170
O=[N+]([O-])c1ccc(NCCCCCN2CCCCC2)c2nonc12 | 11
